The data set in a line: Powder dissolution, visual determination of clarity in drinking water. In kind it is physicochemical. As to conditions: 3.0 g in 1000 mL drinking water, stirred 2 min at 300±10 rpm, 30±1° C.; trihydrate. On the procedure: Non-micronized amoxicillin trihydrate (3.0 g) was added to a 2 L beaker and drinking water (1000 mL) was added. The mixture was stirred for 2 min at 300±10 rpm at 30±1° C. After two minutes the stirrer was stopped. The same procedure was applied to a sample of micronized amoxicillin trihydrate. Both mixtures were visually observed.

The structures appear in SMILES notation.

For the compound `CC1(C)S[C@@H]2[C@H](NC(=O)[C@H](N)c3ccc(O)cc3)C(=O)N2[C@H]1C(=O)O` [Non-micronized amoxicillin trihydrate, amoxicillin trihydrate], the “Visual appearance of the mixture (clarity)” value is reported as “cloudy”.

Take `CC1(C)S[C@@H]2[C@H](NC(=O)[C@H](N)c3ccc(O)cc3)C(=O)N2[C@H]1C(=O)O` [micronized amoxicillin trihydrate, amoxicillin trihydrate]: the “Visual appearance of the mixture (clarity)” value is on record as “clear”.

Source of the values: US9820943B2, “Micronized amoxicillin” (DSM SINOCHEM PHARMACEUTICALS NETHERLANDS B.V., priority 2013, dated 2017).
